Reference: ChEMBL document CHEMBL3885881, “DrugMatrix”

Species: Rattus norvegicus
Assay: DrugMatrix - Regimen: Daily Repeat
Format: toxicity, organism-based, Sprague-Dawley
Design: regimen Daily Repeat, gender Male, age 6-8 weeks
Conditions: in vivo, po, route oral GAVAGE, […]; for ABSOLUTE BASOPHIL / ABSOLUTE EOSINOPHIL / ABSOLUTE LYMPHOCYTE / ABSOLUTE MONOCYTE / ABSOLUTE SEGMENTED NEUTROPHIL / BASOPHIL / EOSINOPHIL / ERYTHROCYTE COUNT / HEMATOCRIT / HEMOGLOBIN / LEUKOCYTE COUNT / LYMPHOCYTE / MEAN CORPUSCULAR HEMOGLOBIN / MEAN CORPUSCULAR HEMOGLOBIN CONCENTRATION / MEAN CORPUSCULAR VOLUME / MONOCYTE / NEUTROPHIL / NUCLEATED RED BLOOD CELLS / PLATELET COUNT: tissue Blood; for ALANINE AMINOTRANSFERASE / ALBUMIN / ALKALINE PHOSPHATASE / ASPARTATE AMINOTRANSFERASE / BLOOD UREA NITROGEN / CARBON DIOXIDE / CHLORIDE / CHOLESTEROL / CREATINE PHOSPHOKINASE / CREATININE / GLUCOSE / LACTATE DEHYDROGENASE / LIPASE / PHOSPHORUS / POTASSIUM / SODIUM / TOTAL BILIRUBIN / TOTAL PROTEIN / URIC ACID: tissue Plasma
[1] = 0 mg/kg, 72 h, dose level Control, time 3 day
[2] = 0 mg/kg, 120 h, dose level Control, time 5 day
[3] = 67 mg/kg, 72 h, dose level Low, time 3 day
[4] = 67 mg/kg, 120 h, dose level Low, time 5 day

## Cc1cccc(C)c1NC(=O)C(C)N (stereo unspecified) [TOCAINIDE]
[1]
  ABSOLUTE BASOPHIL: 0 CELLS/uL
  ABSOLUTE EOSINOPHIL: 41.83 CELLS/uL
  ABSOLUTE LYMPHOCYTE: 8545.5 CELLS/uL
  ABSOLUTE MONOCYTE: 240 CELLS/uL
  ABSOLUTE SEGMENTED NEUTROPHIL: 906 CELLS/uL
  BASOPHIL: 0%
  EOSINOPHIL: 0.33%
  ERYTHROCYTE COUNT: 5.6 x10E6/uL
  HEMATOCRIT: 35.4%
  HEMOGLOBIN: 13.42 G/DL
  LEUKOCYTE COUNT: 9.73 x10E3/uL
  LYMPHOCYTE: 87.83%
  MEAN CORPUSCULAR HEMOGLOBIN: 23.98 pg
  MEAN CORPUSCULAR HEMOGLOBIN CONCENTRATION: 37.92 G/DL
  MEAN CORPUSCULAR VOLUME: 63.3 fL
  MONOCYTE: 2.5%
  NEUTROPHIL: 9.33%
  NUCLEATED RED BLOOD CELLS: 0 /100WBC
  PLATELET COUNT: 1032 x10E3/uL
  ALANINE AMINOTRANSFERASE: 72.83 u/L
  ALBUMIN: 4 G/DL
  ALKALINE PHOSPHATASE: 322.83 u/L
  ASPARTATE AMINOTRANSFERASE: 102.67 u/L
  BLOOD UREA NITROGEN: 12 mg/dL
  CARBON DIOXIDE: 34.33 mmol/L
  CHLORIDE: 97.67 MEQ/L
  CHOLESTEROL: 82.5 mg/dL
  CREATINE PHOSPHOKINASE: 410.33 u/L
  CREATININE: 0.18 mg/dL
  GLUCOSE: 164.5 mg/dL
  LACTATE DEHYDROGENASE: 119.5 u/L
  LIPASE: 11.83 u/L
  PHOSPHORUS: 9.52 mg/dL
  POTASSIUM: 5.56 MEQ/L
  SODIUM: 142.48 MEQ/L
  TOTAL BILIRUBIN: 0.18 mg/dL
  TOTAL PROTEIN: 5.77 G/DL
  URIC ACID: 0.48 mg/dL
[2]
  ABSOLUTE BASOPHIL: 0 CELLS/uL
  ABSOLUTE EOSINOPHIL: 0 CELLS/uL
  ABSOLUTE LYMPHOCYTE: 9065 CELLS/uL
  ABSOLUTE MONOCYTE: 341.33 CELLS/uL
  ABSOLUTE SEGMENTED NEUTROPHIL: 527 CELLS/uL
  BASOPHIL: 0%
  EOSINOPHIL: 0%
  ERYTHROCYTE COUNT: 5.25 x10E6/uL
  HEMATOCRIT: 34.08%
  HEMOGLOBIN: 13.5 G/DL
  LEUKOCYTE COUNT: 9.93 x10E3/uL
  LYMPHOCYTE: 91.17%
  MEAN CORPUSCULAR HEMOGLOBIN: 25.7 pg
  MEAN CORPUSCULAR HEMOGLOBIN CONCENTRATION: 39.62 G/DL
  MEAN CORPUSCULAR VOLUME: 64.93 fL
  MONOCYTE: 3.33%
  NEUTROPHIL: 5.5%
  NUCLEATED RED BLOOD CELLS: 0 /100WBC
  PLATELET COUNT: 1077.5 x10E3/uL
  ALANINE AMINOTRANSFERASE: 57.83 u/L
  ALBUMIN: 4.07 G/DL
  ALKALINE PHOSPHATASE: 319.17 u/L
  ASPARTATE AMINOTRANSFERASE: 83.33 u/L
  BLOOD UREA NITROGEN: 13.67 mg/dL
  CARBON DIOXIDE: 30.83 mmol/L
  CHLORIDE: 98.33 MEQ/L
  CHOLESTEROL: 64.83 mg/dL
  CREATINE PHOSPHOKINASE: 263.67 u/L
  CREATININE: 0.2 mg/dL
  GLUCOSE: 182.83 mg/dL
  LACTATE DEHYDROGENASE: 124 u/L
  LIPASE: 10.5 u/L
  PHOSPHORUS: 10 mg/dL
  POTASSIUM: 5.78 MEQ/L
  SODIUM: 142.48 MEQ/L
  TOTAL BILIRUBIN: 0.2 mg/dL
  TOTAL PROTEIN: 6 G/DL
  URIC ACID: 0.7 mg/dL
[3]
  ABSOLUTE BASOPHIL: 0 CELLS/uL
  ABSOLUTE EOSINOPHIL: 83.33 CELLS/uL
  ABSOLUTE LYMPHOCYTE: 10800 CELLS/uL
  ABSOLUTE MONOCYTE: 251.33 CELLS/uL
  ABSOLUTE SEGMENTED NEUTROPHIL: 1265.33 CELLS/uL
  BASOPHIL: 0%
  EOSINOPHIL: 0.67%
  ERYTHROCYTE COUNT: 5.15 x10E6/uL
  HEMATOCRIT: 32.47%
  HEMOGLOBIN: 12.83 G/DL
  LEUKOCYTE COUNT: 12.4 x10E3/uL
  LYMPHOCYTE: 86.67%
  MEAN CORPUSCULAR HEMOGLOBIN: 24.97 pg
  MEAN CORPUSCULAR HEMOGLOBIN CONCENTRATION: 39.5 G/DL
  MEAN CORPUSCULAR VOLUME: 63.07 fL
  MONOCYTE: 2.33%
  NEUTROPHIL: 10.33%
  NUCLEATED RED BLOOD CELLS: 0 /100WBC
  PLATELET COUNT: 980 x10E3/uL
  ALANINE AMINOTRANSFERASE: 64 u/L
  ALBUMIN: 3.83 G/DL
  ALKALINE PHOSPHATASE: 379.67 u/L
  ASPARTATE AMINOTRANSFERASE: 79.67 u/L
  BLOOD UREA NITROGEN: 12.33 mg/dL
  CARBON DIOXIDE: 26 mmol/L
  CHLORIDE: 101 MEQ/L
  CHOLESTEROL: 69.33 mg/dL
  CREATINE PHOSPHOKINASE: 212.67 u/L
  CREATININE: 0.29 mg/dL
  GLUCOSE: 163 mg/dL
  LACTATE DEHYDROGENASE: 145.67 u/L
  LIPASE: 16 u/L
  PHOSPHORUS: 10.33 mg/dL
  POTASSIUM: 5.62 MEQ/L
  SODIUM: 142.37 MEQ/L
  TOTAL BILIRUBIN: 0.2 mg/dL
  TOTAL PROTEIN: 5.4 G/DL
  URIC ACID: 0.83 mg/dL
[4]
  ABSOLUTE BASOPHIL: 0 CELLS/uL
  ABSOLUTE EOSINOPHIL: 0 CELLS/uL
  ABSOLUTE LYMPHOCYTE: 9456 CELLS/uL
  ABSOLUTE MONOCYTE: 276.33 CELLS/uL
  ABSOLUTE SEGMENTED NEUTROPHIL: 701 CELLS/uL
  BASOPHIL: 0%
  EOSINOPHIL: 0%
  ERYTHROCYTE COUNT: 5.11 x10E6/uL
  HEMATOCRIT: 34.43%
  HEMOGLOBIN: 13.2 G/DL
  LEUKOCYTE COUNT: 10.43 x10E3/uL
  LYMPHOCYTE: 90.67%
  MEAN CORPUSCULAR HEMOGLOBIN: 25.9 pg
  MEAN CORPUSCULAR HEMOGLOBIN CONCENTRATION: 38.37 G/DL
  MEAN CORPUSCULAR VOLUME: 67.47 fL
  MONOCYTE: 2.67%
  NEUTROPHIL: 6.67%
  NUCLEATED RED BLOOD CELLS: 0 /100WBC
  PLATELET COUNT: 1124 x10E3/uL
  ALANINE AMINOTRANSFERASE: 58.33 u/L
  ALBUMIN: 4.1 G/DL
  ALKALINE PHOSPHATASE: 361 u/L
  ASPARTATE AMINOTRANSFERASE: 79.67 u/L
  BLOOD UREA NITROGEN: 10.67 mg/dL
  CARBON DIOXIDE: 30.67 mmol/L
  CHLORIDE: 95 MEQ/L
  CHOLESTEROL: 65.67 mg/dL
  CREATININE: 0.16 mg/dL
  GLUCOSE: 174.33 mg/dL
  LACTATE DEHYDROGENASE: 154.67 u/L
  LIPASE: 9.67 u/L
  PHOSPHORUS: 10.87 mg/dL
  POTASSIUM: 5.33 MEQ/L
  SODIUM: 137.97 MEQ/L
  TOTAL BILIRUBIN: 0.17 mg/dL
  TOTAL PROTEIN: 5.97 G/DL
  URIC ACID: 0.7 mg/dL
